Measurements: the supplement of paper PMC10307832

What was measured:
Assay in all cases: relative viability (nuclei count vs DMSO), 5 days (fraction); higher = more cells survive
[1] = compound: Cc1ccc2nc(NCCN)c3ncc(C)n3c2c1 + CC(=O)c1c(C)c2cnc(Nc3ccc(N4CCNCC4)cn3)nc2n(C2CCCC2)c1=O [Palbociclib] (partner 0.5 µM)
How it was run: (§1)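 Values are medians from duplicate plates. Each reflects relative viability, defined as the nuclei count of treated wells over that of vehicle wells. Lung cancer cell lines in 1536-well plates were pin-tool dosed one day after seeding with one drug alone or with a fixed anchor-drug dose plus five library-drug doses (not always all listed) in √10 steps, then fixed, stained and imaged at 4× after 5 days.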

[2] = compound: Cc1ccc2nc(NCCN)c3ncc(C)n3c2c1 + CCNC(=O)c1noc(-c2cc(C(C)C)c(O)cc2O)c1-c1ccc(CN2CCOCC2)cc1 [Luminespib] (partner 0.01 µM)
How it was run: as §1

[3] = compound: Cc1ccc2nc(NCCN)c3ncc(C)n3c2c1 + NC(=O)Nc1cc(-c2cccc(F)c2)sc1C(=O)N[C@H]1CCCNC1 [AZD7762] (partner 0.2 µM)
How it was run: as §1

[4] = compound: O=C(/C=C/c1ccccc1)NC(NC(=S)Nc1cccc2cccnc12)C(Cl)(Cl)Cl [Salubrinal] + CC(=O)c1c(C)c2cnc(Nc3ccc(N4CCNCC4)cn3)nc2n(C2CCCC2)c1=O [Palbociclib] (partner 0.5 µM)
How it was run: as §1

Row | Cell Line | relative viability ([1]; first compound 0.04 µM) | relative viability ([1]; first compound 0.1265 µM) | relative viability ([1]; first compound 0.4 µM) | relative viability ([1]; first compound 1.265 µM) | relative viability ([1]; first compound 4 µM) | relative viability ([2]; first compound 0.04 µM) | relative viability ([2]; first compound 0.1265 µM) | relative viability ([2]; first compound 0.4 µM) | relative viability ([2]; first compound 1.265 µM) | relative viability ([2]; first compound 4 µM) | relative viability ([3]; first compound 0.04 µM) | relative viability ([3]; first compound 0.1265 µM) | relative viability ([3]; first compound 0.4 µM) | relative viability ([3]; first compound 1.265 µM) | relative viability ([3]; first compound 4 µM) | relative viability ([4]; first compound 0.08 µM) | relative viability ([4]; first compound 0.253 µM) | relative viability ([4]; first compound 0.8 µM) | relative viability ([4]; first compound 2.53 µM) | relative viability ([4]; first compound 8 µM)
1 | LCLC-103H | 0.463 | 0.462 | 0.428 | 0.497 | 0.488 | 0.887 | 0.927 | 0.931 | 0.925 | 0.858 | 0.877 | 0.821 | 0.654 | 0.772 | 0.752 | 0.469 | 0.491 | 0.469 | 0.453 | 0.467
2 | PC-3 [JPC-3] | 0.56 | 0.56 | 0.552 | 0.513 | 0.512 | 0.733 | 0.71 | 0.672 | 0.671 | 0.628 | 0.883 | 0.623 | 0.829 | 0.728 | 0.591 | 0.514 | 0.579 | 0.539 | 0.28 | 0.629
3 | BEN | 0.506 | 0.484 | 0.479 | 0.465 | 0.48 | 0.337 | 0.295 | 0.425 | 0.179 | 0.688 | 0.719 | 0.738 | 0.538 | 0.68 | 0.783 | 0.453 | 0.444 | 0.484 | 0.457 | 0.463
4 | NCI-H1666 | 0.664 | 0.675 | 0.598 | 0.611 | 0.665 | 0.963 | 0.994 | 1.07 | 0.915 | 1.01 | 0.903 | 0.961 | 0.774 | 0.756 | 0.841 | 0.687 | 0.593 | 0.632 | 0.641 | 0.603
5 | LC-2-ad | 0.469 | 0.524 | 0.482 | 0.51 | 0.452 | 0.891 | 0.947 | 1.13 | 1.04 | 0.798 | 0.86 | 0.806 | 0.822 | 0.86 | 0.795 | 0.499 | 0.403 | 0.586 | 0.478 | 0.403
6 | ChaGo-K-1 | 0.929 | 0.919 | 0.919 | 0.891 | 0.907 | 0.7 | 0.565 | 0.608 | 0.517 | 0.643 | 0.946 | 0.901 | 0.874 | 0.808 | 0.921 | 1.02 | 0.756 | 0.954 | 0.938 | 0.837
7 | NCI-H1975 | 0.626 | 0.583 | 0.647 | 0.611 | 0.517 | 0.224 | 0.243 | 0.326 | 0.116 | 0.153 | 0.791 | 0.73 | 0.672 | 0.66 | 0.595 | 0.473 | 0.424 | 0.675 | 0.717 | 0.567
8 | NCI-H1993 | 0.627 | 0.559 | 0.532 | 0.501 | 0.596 | 1.01 | 0.944 | 0.902 | 0.887 | 0.859 | 0.937 | 0.875 | 0.554 | 0.727 | 0.625 | 0.718 | 0.596 | 0.737 |  | 0.648
9 | RERF-LC-KJ | 0.969 | 1 | 1.14 | 1.08 | 0.881 | 1.13 | 1.14 | 1.26 | 1.17 | 0.715 | 1.09 | 0.934 | 0.828 | 0.942 | 0.838 | 1.14 | 1.04 | 1.13 | 1.09 | 0.964
10 | NCI-H23 | 0.501 | 0.562 | 0.437 | 0.469 | 0.309 | 0.207 | 0.227 |  | 0.201 | 0.217 | 0.282 | 0.297 | 0.261 | 0.228 | 0.22 | 0.635 | 0.387 | 0.598 | 0.46 | 0.501
11 | EMC-BAC-2 | 0.55 | 0.536 | 0.509 | 0.521 | 0.486 | 1.21 | 1.2 | 1.19 | 1.2 | 1.13 | 1.2 | 1.11 | 1.04 | 1.06 | 1.02 | 0.493 | 0.493 | 0.541 | 0.525 | 0.524
12 | NCI-H2405 | 0.557 | 0.511 | 0.518 | 0.522 | 0.508 | 0.841 | 0.631 | 0.732 | 0.563 | 0.595 | 0.855 | 0.682 | 0.758 | 0.671 | 0.639 | 0.536 | 0.484 | 0.55 | 0.524 | 0.521
13 | NCI-H1944 | 0.333 | 0.322 | 0.349 | 0.31 | 0.297 | 0.735 | 0.735 | 0.663 | 0.817 | 0.844 | 0.48 | 0.64 | 0.456 | 0.351 | 0.498 | 0.394 | 0.372 | 0.315 | 0.299 | 0.337
14 | NCI-H358 | 0.122 | 0.121 | 0.123 | 0.145 | 0.131 | 0.309 | 0.373 | 0.236 | 0.326 | 0.313 | 0.51 | 0.573 | 0.413 | 0.515 | 0.401 | 0.154 | 0.137 | 0.123 | 0.109 | 0.138
15 | EPLC-272H | 0.337 | 0.348 | 0.315 | 0.257 | 0.249 | 0.272 | 0.253 | 0.196 | 0.299 | 0.159 | 0.228 | 0.404 | 0.214 | 0.177 | 0.166 | 0.314 | 0.295 | 0.293 | 0.288 | 0.312
16 | NCI-H1915 | 0.512 | 0.51 | 0.39 | 0.552 | 0.488 | 0.721 | 0.783 |  | 0.598 | 0.636 | 0.646 | 0.702 | 0.551 | 0.728 | 0.704 | 0.506 |  | 0.576 | 0.559 | 0.568
17 | NCI-H322M | 0.506 | 0.491 | 0.512 | 0.468 | 0.542 | 0.908 | 0.845 | 0.961 | 0.858 | 0.734 | 0.446 | 0.703 | 0.638 | 0.552 | 0.605 | 0.528 | 0.445 | 0.547 | 0.483 | 0.518
